Assay results: PubChem BioAssay (NCI)
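Five compound concentrations were applied to cells in 96-well plates for 48 hours; endpoints were derived by simple linear interpolation of the resulting dose-response curve. At the GI50, growth is halved. Definition used: TGI = concentration required for complete inhibition of growth.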

system: NCI-H460 lung; assay: growth of human tumour cells (NCI), 48 h

SMILES | GI50 [µM] | TGI [µM]
COc1ccc(-c2cc(=O)oc3c4c(ccc23)OCN(Cc2ccc(F)cc2)C4)cc1 | 15.9 | 30.2

system: NCI-H522 lung; assay: growth of human tumour cells (NCI), 48 h

SMILES | GI50 [µM] | TGI [µM]
COc1nc(=O)n(C2C=CC(=O)O2)cc1F (configuration not stated) | 2.33 | 8.72
O=c1[nH]c(O)c(C=Nc2ccc(-c3nc4ccccc4o3)cc2)c(=O)[nH]1 | 30.9 | > 100
COc1ccc(-c2cc(=O)oc3c4c(ccc23)OCN(Cc2ccc(F)cc2)C4)cc1 | 16.6 | 33.6

system: NCI/ADR-RES ovarian; assay: growth of human tumour cells (NCI), 48 h

SMILES | GI50 [µM] | TGI [µM]
COc1nc(=O)n(C2C=CC(=O)O2)cc1F (configuration not stated) | 10.1 | 37.4
CNCCCNc1ccnc2cc(Cl)ccc12 | 34.4 | > 100
O=c1[nH]c(O)c(C=Nc2ccc(-c3nc4ccccc4o3)cc2)c(=O)[nH]1 | 3.56 | 9.59
COc1ccc(-c2cc(=O)oc3c4c(ccc23)OCN(Cc2ccc(F)cc2)C4)cc1 | 17.2 | 42.9

system: OVCAR-3 ovarian; assay: growth of human tumour cells (NCI), 48 h

SMILES | GI50 [µM] | TGI [µM]
COc1nc(=O)n(C2C=CC(=O)O2)cc1F (configuration not stated) | 3.26 | 11.2
CNCCCNc1ccnc2cc(Cl)ccc12 | 27.6 | 95.5
O=c1[nH]c(O)c(C=Nc2ccc(-c3nc4ccccc4o3)cc2)c(=O)[nH]1 | 15.6 | 57.4
COc1ccc(-c2cc(=O)oc3c4c(ccc23)OCN(Cc2ccc(F)cc2)C4)cc1 | 15.3 | 29.9

system: OVCAR-4 ovarian; assay: growth of human tumour cells (NCI), 48 h

SMILES | GI50 [µM] | TGI [µM]
COc1nc(=O)n(C2C=CC(=O)O2)cc1F (configuration not stated) | 3.09 | 15.5
CNCCCNc1ccnc2cc(Cl)ccc12 | 18.7 | 57.4
O=c1[nH]c(O)c(C=Nc2ccc(-c3nc4ccccc4o3)cc2)c(=O)[nH]1 | 33 | > 100
COc1ccc(-c2cc(=O)oc3c4c(ccc23)OCN(Cc2ccc(F)cc2)C4)cc1 | 17.4 | 43.2

system: OVCAR-5 ovarian; assay: growth of human tumour cells (NCI), 48 h

SMILES | GI50 [µM] | TGI [µM]
COc1nc(=O)n(C2C=CC(=O)O2)cc1F (configuration not stated) | 15.2 | 28.6
CNCCCNc1ccnc2cc(Cl)ccc12 | 21.1 | 72
O=c1[nH]c(O)c(C=Nc2ccc(-c3nc4ccccc4o3)cc2)c(=O)[nH]1 | > 100 | > 100
COc1ccc(-c2cc(=O)oc3c4c(ccc23)OCN(Cc2ccc(F)cc2)C4)cc1 | 18.4 | 45.1

system: OVCAR-8 ovarian; assay: growth of human tumour cells (NCI), 48 h

SMILES | GI50 [µM] | TGI [µM]
COc1nc(=O)n(C2C=CC(=O)O2)cc1F (configuration not stated) | 23.9 | > 100
CNCCCNc1ccnc2cc(Cl)ccc12 | 28.3 | > 100
O=c1[nH]c(O)c(C=Nc2ccc(-c3nc4ccccc4o3)cc2)c(=O)[nH]1 | 25.8 | > 100
COc1ccc(-c2cc(=O)oc3c4c(ccc23)OCN(Cc2ccc(F)cc2)C4)cc1 | 17.2 | 37.7

system: PC-3 prostate; assay: growth of human tumour cells (NCI), 48 h

SMILES | GI50 [µM] | TGI [µM]
COc1nc(=O)n(C2C=CC(=O)O2)cc1F (configuration not stated) | 19.8 | 62.4
CNCCCNc1ccnc2cc(Cl)ccc12 | 17.9 | 57
